# Assays:
# HCMV wild-type = experiment: HCMV yield assay; assay type: cell-based, human cytomegalovirus; details: human foreskin fibroblasts; for IC50: Human betaherpesvirus 5, Fibroblast, read-out: IC50 (ug/ml) HCMV
# Method: Yield assay. Monolayer cultures of human foreskin fibroblasts are infected with HCMV wild-type, typically at a multiplicity of infection equal to 0.2, in the presence of inhibitor compound (varying concentrations). At three days post-infection, total virus produced in these cultures (i.e. virus yield) is assessed by harvesting and titering the virus in 12-well plates of cultured human foreskin fibroblasts (done in the absence of inhibitor). Plaques are quantified at 2 weeks post-infection. An inhibitor of HCMV is identified by the reduction in titer of virus yield in the presence, compared to the titer in the absence of compound. In this assay, the relative anti-HCMV activity of an inhibitor is typically determined by calculating the IC50 or IC90 value, that is, the amount of compound required to reduce the virus yield by 50% or 90%, respectively. Table I describes IC50 data for compounds tested against HCMV.
# HSV-1 = experiment: HSV Antiviral (ELISA) Assay; assay type: cell-based, herpes simplex virus type 1; details: Vero cells; for IC50: Human alphaherpesvirus 1, read-out: IC50 (ug/ml) HSV
# Method: Vero cells (ATCC #CCL-81) are plated on 96-well tissue culture plates at 3.5×10^4 cells per 100 μl tissue culture DMEM (Dulbecco's modified Eagle media) supplemented with 2% fetal bovine serum (FBS) in each well. After overnight incubation @37° C. (in 5% CO2) and 30 minutes prior to infection with HSV-1 (multiplicity of infection equal to 0.006), cells are either untreated, or treated with test compound (multiple concentrations) or reference standard drug control. After approximately 24 hours post-infection incubation @37° C. (in 5% CO2), cells are fixed for ELISA assay. The primary antibody is murine anti-HSV glycoprotein D monoclonal primary antibody and the secondary antibody is goat anti-mouse IgG linked to β-galactosidase. Thus the extent of viral replication is determined by assessing β-galactosidase activity by quantifying the generation of the 4-methyl umbeliiferone fluorescent cleavage product after addition of the methyl umbelliferyl-β-D-galactoside (Sigma #M1633) substrate on a microfluorimeter (365 nm for excitation and 450 nm for emission). Antiviral activity (IC50) of the test compound is determined by comparing the flourescence obtained in absence of compound to that obtained in the presence of compound.
# VZV strain Ellen = experiment: VZV Antiviral (ELISA) Assay; assay type: cell-based, varicella-zoster virus; details: human foreskin fibroblast cells; for inhibition at 10 µg/mL: Human alphaherpesvirus 3, read-out: % inhibition 10 ug/ml VZV; for inhibition at 10 µg/mL / % inhibition 10 ug/ml VZV: 10 ug/ml; for IC50: Human alphaherpesvirus 3, read-out: IC50 (ug/ml) VZV
# Method: For the generation of stock VZV to be used in the assay, VZV strain Ellen (ATCC #VR-1367) is used to infect human foreskin fibroblast (HFF) cells at low multiplicity (less than 0.1) and incubated overnight at 37° C. in 5% CO2. After the overnight incubation, the mixture of uninfected and VZV-infected HFF infected cells are then harvested and added to each well of 96-well plates (3.5×10^4 cells in 100 μl DMEM supplemented with 2% FBS) which contain test compound or the reference standard drug control (in 100 μl DMEM supplemented with 2% FBS per well). These cells are incubated for three days at 37° C. in 5% CO2, then fixed for ELISA assay. The primary antibody is murine anti-VZV glycoprotein II monoclonal antibody (Applied Biosystems, Inc. #13-145-100) and the secondary antibody is goat anti-mouse IgG linked to β-galactosidase. Thus the extent of viral replication is determined by assessing β-galactosidase activity by quantifying the generation of the 4-methyl umbelliferone fluorescent cleavage product after addition of the methyl umbelliferyl-β-D-galactoside (Sigma #M1633) substrate on a microfluorimeter (365 nm for excitation and 450 nm for emission). Antiviral activity (IC50) of the test compound is determined by comparing the flourescence obtained in absence of compound to that obtained in the presence of compound.
compound,measurement,setting,value
"COc1cc(OC)c(NC(=S)Nc2ccc(NC(=O)c3ccco3)cc2OC)cc1Cl [Example 390, Furan-2-carboxylic acid {4-[3-(5-chloro-2,4-dimethoxy-phenyl)-thioureido]-3-methoxy-phenyl}-amide]",IC50,HCMV wild-type,> 10 µg/mL
same,IC50,HSV-1,0.5 µg/mL
same,inhibition at 10 µg/mL,VZV strain Ellen,61%
same,IC50,VZV strain Ellen,> 10 µg/mL
"COc1cc(OC)c(NC(=S)Nc2cc(O)c(NC(=O)c3ccco3)cc2Cl)cc1Cl [Example 320, Furan-2-carboxylic acid {5-chloro-4-[3-(5-chloro-2,4-dimethoxy-phenyl)-thioureido]-2-hydroxy-phenyl}-amide]",IC50,HCMV wild-type,8 µg/mL
same,IC50,HSV-1,8 µg/mL
same,inhibition at 10 µg/mL,VZV strain Ellen,50%
same,IC50,VZV strain Ellen,> 10 µg/mL
"5-[3-(5-Chloro-2,4-dimethoxy-phenyl)-thioureido]-2-[(furan-2-carbonyl)-amino]-benzoic acid [Example 339]",IC50 (ug/ml) HCMV,HCMV wild-type,50 µg/mL
same,IC50 (ug/ml) HSV,HSV-1,>50 µg/mL
same,% inhibition 10 ug/ml VZV,VZV strain Ellen,11%
same,IC50 (ug/ml) VZV,VZV strain Ellen,>10 µg/mL
"COc1cc(OC)c(NC(=S)Nc2ccc(NC(=O)c3ccco3)c(C)c2)cc1Cl [Example 311, Furan-2-carboxylic acid {4-[3-(5-chloro-2,4-dimethoxy-phenyl)-thioureido]-2-methyl-phenyl}-amide]",IC50,HCMV wild-type,6 µg/mL
same,IC50,HSV-1,12 µg/mL
same,inhibition at 10 µg/mL,VZV strain Ellen,13%
same,IC50,VZV strain Ellen,> 10 µg/mL
"COc1cc(OC)c(NC(=S)Nc2ccc(NC(=O)c3ccco3)cc2C)cc1Cl [Example 296, Furan-2-carboxylic acid {4-[3-(5-chloro-2,4-dimethoxy-phenyl)-thioureido]-3-methyl-phenyl}-amide]",IC50,HCMV wild-type,8 µg/mL
same,IC50,HSV-1,1.2 µg/mL
same,inhibition at 10 µg/mL,VZV strain Ellen,48%
same,IC50,VZV strain Ellen,> 10 µg/mL
"COc1cc(OC)c(NC(=S)Nc2ccc(NC(=O)c3ccco3)c3ccccc23)cc1Cl [Example 324, Furan-2-carboxylic acid {4-[3-(5-chloro-2,4-dimethoxy-phenyl)-thioureido]-naphthalen-1-yl}-amide]",IC50,HCMV wild-type,8 µg/mL
same,IC50,HSV-1,4 µg/mL
same,inhibition at 10 µg/mL,VZV strain Ellen,24%
same,IC50,VZV strain Ellen,> 10 µg/mL
"COc1cc(OC)c(NC(=S)Nc2ccc(NC(=O)c3ccco3)c(OC)c2)cc1Cl [Example 304, Furan-2-carboxylic acid {4-[3-(5-chloro-2,4-dimethoxy-phenyl)-thioureido]-2-methoxy-phenyl}-amide]",IC50,HCMV wild-type,7 µg/mL
same,IC50,HSV-1,8 µg/mL
same,inhibition at 10 µg/mL,VZV strain Ellen,44%
same,IC50,VZV strain Ellen,11 µg/mL
"Furan-2-carboxylic acid {4-[3-(5-chloro-2,4-dimethoxy-phenyl)-thioureido]-3-cyano-phenyl}-amide [Example 382]",IC50 (ug/ml) HCMV,HCMV wild-type,>10 µg/mL
same,IC50 (ug/ml) HSV,HSV-1,>10 µg/mL
same,% inhibition 10 ug/ml VZV,VZV strain Ellen,46%
same,IC50 (ug/ml) VZV,VZV strain Ellen,>10 µg/mL
"COc1cc(OC)c(NC(=S)Nc2ccc(NC(=O)c3ccco3)c(C(=O)Nc3ccccc3)c2)cc1Cl [Example 302, Furan-2-carboxylic acid {4-[3-(5-chloro-2,4-dimethoxy-phenyl)-thioureido]-2-phenylcarbamoyl-phenyl}-amide]",IC50,HCMV wild-type,> 10 µg/mL
same,IC50,HSV-1,10 µg/mL
same,inhibition at 10 µg/mL,VZV strain Ellen,5%
same,IC50,VZV strain Ellen,> 10 µg/mL
"COc1cc(OC)c(NC(=S)Nc2cc(OC)c(NC(=O)c3ccco3)cc2OC)cc1Cl [Example 276, Furan-2-carboxylic acid {4-[3-(5-chloro-2,4-dimethoxy-phenyl)-thioureido]-2,5-dimethoxy-phenyl}-amide]",IC50,HCMV wild-type,> 10 µg/mL
same,IC50,HSV-1,> 10 µg/mL
same,inhibition at 10 µg/mL,VZV strain Ellen,75%
same,IC50,VZV strain Ellen,4 µg/mL
"COc1cc(OC)c(NC(=S)Nc2ccc(NC(=O)c3ccco3)c(C(F)(F)F)c2)cc1Cl [Example 308, Furan-2-carboxylic acid {4-[3-(5-chloro-2,4-dimethoxy-phenyl)-thioureido]-2-trifluoromethyl-phenyl}-amide]",IC50,HCMV wild-type,10 µg/mL
same,IC50,HSV-1,10 µg/mL
same,inhibition at 10 µg/mL,VZV strain Ellen,100%
same,IC50,VZV strain Ellen,4 µg/mL
"COc1cc(OC)c(NC(=S)Nc2ccc(NC(=O)c3ccco3)c(C#N)c2)cc1Cl [Example 306, Furan-2-carboxylic acid {4-[3-(5-chloro-2,4-dimethoxy-phenyl)-thioureido]-2-cyano-phenyl}-amide]",IC50,HCMV wild-type,2.5 µg/mL
same,IC50,HSV-1,> 10 µg/mL
same,inhibition at 10 µg/mL,VZV strain Ellen,33%
same,IC50,VZV strain Ellen,> 10 µg/mL
"COc1cc(OC)c(NC(=S)Nc2ccc(NC(=O)c3ccco3)cc2Cl)cc1Cl [Example 356, Furan-2-carboxylic acid {3-chloro-4-[3-(5-chloro-2,4-dimethoxy-phenyl)thioureido]-phenyl}-amide]",IC50,HCMV wild-type,0.4 µg/mL
same,IC50,HSV-1,0.5 µg/mL
same,inhibition at 10 µg/mL,VZV strain Ellen,72%
same,IC50,VZV strain Ellen,1.9 µg/mL
"COc1cc(OC)c(NC(=S)Nc2ccc(NC(=O)c3ccco3)c(Cl)c2)cc1Cl [Example 307, Furan-2-carboxylic acid {2-chloro-4-[3-(5-chloro-2,4-dimethoxy-phenyl)-thioureido]-phenyl}-amide]",IC50,HCMV wild-type,5 µg/mL
same,IC50,HSV-1,> 10 µg/mL
same,inhibition at 10 µg/mL,VZV strain Ellen,30%
same,IC50,VZV strain Ellen,> 10 µg/mL
"COc1cc(OC)c(NC(=S)Nc2ccc(NC(=O)c3ccco3)cc2C(F)(F)F)cc1Cl [Example 858, Furan-2-carboxylic acid {4-[3-(5-chloro-2,4-dimethoxy-phenyl)-thioureido]-3-trifluoromethyl-phenyl}-amide]",IC50,HCMV wild-type,2 µg/mL
same,IC50,HSV-1,2.5 µg/mL
same,inhibition at 10 µg/mL,VZV strain Ellen,26%
same,IC50,VZV strain Ellen,> 10 µg/mL
"COc1cc(OC)c(NC(=S)Nc2ccc(NC(=O)c3ccco3)c(C(=O)c3ccccc3)c2)cc1Cl [Example 294, Furan-2-carboxylic acid {2-benzoyl-4-[3-(5-chloro-2,4-dimethoxy-phenyl)-thioureido]-phenyl}-amide]",IC50,HCMV wild-type,> 10 µg/mL
same,IC50,HSV-1,> 50 µg/mL
same,inhibition at 10 µg/mL,VZV strain Ellen,0%
same,IC50,VZV strain Ellen,> 10 µg/mL
"COc1cc(OC)c(NC(=S)Nc2cc(C)c(NC(=O)c3ccco3)cc2Cl)cc1Cl [Example 328, Furan-2-carboxylic acid {5-chloro-4[3-(5-chloro-2,4-dimethoxy-phenyl)-thioureido]-2-methyl-phenyl}-amide]",IC50,HCMV wild-type,> 10 µg/mL
same,IC50,HSV-1,> 10 µg/mL
same,inhibition at 10 µg/mL,VZV strain Ellen,44%
same,IC50,VZV strain Ellen,> 10 µg/mL
"COc1cc(OC)c(NC(=S)Nc2cc(OC)c(NC(=O)c3ccco3)cc2C)cc1Cl [Example 287, Furan-2-carboxylic acid {4-[3-(5-chloro-2,4-dimethoxy-phenyl)-thioureido]-2-methoxy-5-methyl-phenyl}-amide]",IC50,HCMV wild-type,> 50 µg/mL
same,IC50,HSV-1,8 µg/mL
same,inhibition at 10 µg/mL,VZV strain Ellen,5%
same,IC50,VZV strain Ellen,> 10 µg/mL
